The record followed here is ChEMBL document CHEMBL1201862, “PubChem BioAssay data set” (2004).

Assay in all cases: growth of human tumour cells (NCI), 48 h
For test [1], the system named is KM12.
Test [2] concerns M14.
For test [3], the system named is IGROV-1.
Test [4] relates to SF-295.
In test [5] the test system is HOP-92.
Test [6] concerns SF-268.
For test [7], the system named is SF-539.
The test system of test [8] is HCT-15.
Test [9] has as its system U-251.
In test [10] the test system is CAKI-1.
The test system of test [11] is HT-29.
The test system of test [12] is OVCAR-8.
Test [13] deals with NCI-H522.
In test [14] the test system is A549.
Test [15] has as its system MOLT-4.
The subject of test [16] is A498.
In test [17] the test system is TK-10.
Test [18] deals with ACHN.
For test [19], the system named is SR.

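Method: 48-hour compound exposure of cells in 96-well plates, five concentrations, linear interpolation of endpoints. Abbreviation: GI50, concentration required for 50% inhibition of growth.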 Calls of active or inactive are those of the source. Rule as the data show it: active = GI50 up to about 1.1 µM and inactive = higher.

As to `CC1=C(CO)C(=O)O[C@@H]([C@@H](C)[C@H]2CC[C@H]3[C@@H]4C[C@@H](O)[C@@]5(O)CC=CC(=O)[C@]5(C)[C@H]4CC[C@]23C)C1` [JABOROSALACTONE D], the GI50 in test [1] was 19.8 µM (inactive); in test [2], 49.2 µM (inactive); in test [3], 15.1 µM (inactive); in test [4], 61.5 µM (inactive); in test [5], 42 µM (inactive); in test [6], 92.3 µM (inactive). Further, the GI50 in test [7] is 31 µM (inactive); in test [8] it was 16.4 µM; in test [9], 37 µM (inactive); in test [10] it was > 100 µM (inactive); in test [11], 33.1 µM (inactive); in [12], 31.3 µM (inactive). Also, the GI50 in test [13] was 14.2 µM (inactive); in test [14], 38 µM (inactive); in [15] it was 26.6 µM (inactive); in test [16], 18.7 µM (inactive); in test [17], > 100 µM (inactive); in test [18], 26.8 µM (inactive).

In the case of `Cc1cc(S(=O)(=O)Nc2n[nH]c(Nc3ccccc3)n2)c(S)cc1Cl`, the GI50 in test [1], in test [2], in test [3], in test [4], in [6] and in test [7] was > 10 µM (inactive) in each case. In addition, the GI50 in [8] was > 10 µM; in test [9], > 10 µM (inactive); in test [10], > 10 µM (inactive); in [11], > 10 µM (inactive); in test [12], > 10 µM (inactive); in test [13] it was > 10 µM (inactive). Moreover, the GI50 in test [14], in test [15], in test [16], in test [17] and in test [18] was > 10 µM (inactive) throughout.

Regarding `CCOC(=O)c1sc2c(c1OC(=O)c1ccccc1)c(=O)n(-c1ccccc1)c(=S)n2-c1ccccc1`, the GI50 in [1] is 40.6 µM (inactive); in [2], 19.9 µM (inactive); in [3] it was 19.8 µM (inactive); in [4] it was 49.7 µM (inactive); in test [5], 25.7 µM (inactive); in [6], 38.5 µM (inactive). Moreover, the GI50 was 20.6 µM (inactive) in test [7]; 45.5 µM in test [8]; 20.3 µM (inactive) in test [9]; 97.9 µM (inactive) in test [10]; 19.2 µM (inactive) in test [11]; 34.3 µM (inactive) in [12]. In addition, the GI50 was 23.6 µM (inactive) in [13]; 26.1 µM (inactive) in [14]; 42.8 µM (inactive) in test [15]; 15.5 µM (inactive) in test [16]; 70.1 µM (inactive) in test [17]; 32 µM (inactive) in [18].

As for `CCCNC(=O)N(C)C(=O)N1N=C(c2ccccc2)C1c1ccccc1` (stereo not given), the GI50 was 40.5 µM (inactive) in test [1]; > 100 µM (inactive) in [2]; 78.7 µM (inactive) in [3]; 64.7 µM (inactive) in test [4]; 62.4 µM (inactive) in test [5]; > 100 µM (inactive) in test [7]. Further, the GI50 is 45.3 µM in test [8]; 89.9 µM (inactive) in test [9]; 75.3 µM (inactive) in [10]; 55.7 µM (inactive) in test [12]; 62.4 µM (inactive) in test [13]; 78.9 µM (inactive) in test [14]. The GI50 in test [15] was 23.7 µM (inactive); in test [16] it was > 100 µM (inactive); in [17] it was > 100 µM (inactive); in test [18], 90.6 µM (inactive).

With `COc1ccc(Cl)cc1NC(=O)O/N=C(\Cl)C(C)C`, the GI50 is 16.8 µM (inactive) in test [1]; 3.28 µM (inactive) in test [2]; 12.2 µM (inactive) in [3]; 17.9 µM (inactive) in [4]; 1.97 µM (inactive) in [5]; 21.5 µM (inactive) in [6]. The GI50 in test [7] is 13.1 µM (inactive); in test [8], 2.64 µM; in test [9], 26.4 µM (inactive); in test [10] it was 1.82 µM (inactive); in test [11], 16.4 µM (inactive); in test [12], 15 µM (inactive). Moreover, the GI50 was 0.752 µM (active) in test [13]; 18.8 µM (inactive) in [14]; 2.03 µM (inactive) in test [15]; 21.5 µM (inactive) in [16]; 2.55 µM (inactive) in test [17]; 2.12 µM (inactive) in [18].

With `COc1cccc(OC)c1NC(=O)C(=O)Nn1c(NNC(=O)c2ccncc2)nc2ccccc2c1=O`, the GI50 in [1], in test [2], in test [3], in test [4], in test [5] and in [6] was > 100 µM (inactive) in each case. Moreover, the GI50 in test [7] was > 100 µM (inactive); in [8], > 100 µM; in test [9] it was > 100 µM (inactive); in test [10], > 100 µM (inactive); in [11] it was > 100 µM (inactive); in [12], > 100 µM (inactive). Moreover, the GI50 in test [13], in test [14], in test [15], in test [16], in test [17] and in test [18] was > 100 µM (inactive) each time.

For the molecule `CSc1nc(Cl)c2c(n1)Sc1nc3ccccc3n1N=C2`, the GI50 in test [1] is 37.8 µM (inactive); in test [2] it was 21 µM (inactive); in [3] it was 17 µM (inactive); in test [4] it was > 100 µM (inactive); in test [5], 18.3 µM (inactive); in test [6], 31 µM (inactive). Also, the GI50 in test [8] is 17.6 µM; in test [9] it was 55.6 µM (inactive); in test [10], 13.4 µM (inactive); in test [11], 23.2 µM (inactive); in test [12], 19.1 µM (inactive); in [13] it was 19 µM (inactive). In addition, the GI50 in [14] is 45.2 µM (inactive); in test [15] it was 21.7 µM (inactive); in test [16], > 100 µM (inactive); in [17], 33.7 µM (inactive); in test [18], 23.7 µM (inactive).

With `CC(C)(C)OC(=O)NC(CCCCNC(=O)OCc1ccccc1)C(=O)NC(CCCCNC(=O)OCc1ccccc1)C(=O)ON1C(=O)CCC1=O` (stereo not given), the GI50 in test [1] is > 100 µM (inactive); in [19], > 100 µM (inactive); in [2], > 100 µM (inactive); in test [3], > 100 µM (inactive); in [5], > 100 µM (inactive); in test [8], > 100 µM. In addition, the GI50 in test [9], in test [11], in [12], in test [14], in [15] and in [17] was > 100 µM (inactive) each time.

As to `CCOC(=O)C1=C(N2CCCC2)C(=O)C(C(=O)OCC)C1` (stereo not given), the GI50 in [1], in test [2], in test [3], in test [4], in test [5] and in test [6] was > 100 µM (inactive) in each case. The GI50 in [7] is > 100 µM (inactive); in test [8], > 100 µM; in [9] it was > 100 µM (inactive); in test [10], > 100 µM (inactive); in test [12], > 100 µM (inactive); in [13] it was > 100 µM (inactive). The GI50 in test [14], in test [15], in test [16], in test [17] and in test [18] was > 100 µM (inactive) in each case.

Turning to `CC(C)[C@@H]1CC[C@@H](C)C[C@H]1OC(=O)c1c2n(c3ccccc13)C[C@H]1OC(C)(C)O[C@@H]21`, the GI50 was 9.08 µM (inactive) in test [1]; 3.23 µM (inactive) in test [19]; 22.9 µM (inactive) in test [2]; 13 µM (inactive) in test [3]; 6.46 µM (inactive) in [4]; 19.2 µM (inactive) in [6]. The GI50 was 24.7 µM in test [8]; 5.14 µM (inactive) in test [9]; 26.9 µM (inactive) in test [10]; 8.2 µM (inactive) in [11]; 20.9 µM (inactive) in [12]; 18.9 µM (inactive) in test [14]. Also, the GI50 in test [15] was 3.87 µM (inactive); in [17], 18.5 µM (inactive); in [18], 8.22 µM (inactive).

As for `Nc1ccc2ccc(-c3ccc[nH]3)nc2n1`, the GI50 in test [1], in test [2], in [3], in [4], in [5] and in test [6] was > 100 µM (inactive) throughout. For the same molecule, the GI50 in test [7] was > 100 µM (inactive); in test [8] it was > 100 µM; in test [9], > 100 µM (inactive); in test [10] it was > 100 µM (inactive); in test [12], > 100 µM (inactive); in [13], > 100 µM (inactive). Also, the GI50 in test [14], in test [16], in test [17] and in [18] was > 100 µM (inactive) each time.

For the molecule `Cc1ccc(S(=O)(=O)Nn2c(S)c(C#N)c(-c3ccc([N+](=O)[O-])cc3)c(C#N)c2=O)cc1`, the GI50 was 31.6 µM (inactive) in [1]; 35.1 µM (inactive) in [2]; 19.4 µM (inactive) in test [3]; 49.4 µM (inactive) in test [4]; 32.1 µM (inactive) in test [5]; 30.7 µM (inactive) in test [6]. Further, the GI50 is 16.7 µM (inactive) in [7]; 17.3 µM in [8]; 29 µM (inactive) in [9]; > 100 µM (inactive) in test [10]; 32.5 µM (inactive) in [11]; 36.6 µM (inactive) in [12]. Further, the GI50 in test [13] is 15.7 µM (inactive); in test [14] it was 47.9 µM (inactive); in test [15] it was 17.3 µM (inactive); in test [16] it was 89.1 µM (inactive); in test [17], 65.3 µM (inactive); in test [18] it was 51.5 µM (inactive).
